Patent publication US20210040452A1, “HEMATOPOIETIC CELLS AND METHODS OF USING AND GENERATING THE SAME” (The Regents of the University of California, priority 2015, published 2021)

What was measured:
[1] = system: wild type E11 whole AGM explants; assay: AGM explant culture with DAPT, HE ratio by FACS; assay type: cell-based, mouse
Source text: Currently it is not possible to predict which specific endothelial cell within a hemogenic vascular bed will transition to a hematopoietic fate. Also not known is whether endothelial cells comprising the same hemogenic site are all capable of EHT. So whether the actual cell fate conversion is a stochastic event or a predetermined fate change remains to be seen. To circumvent the current obstacles of EHT prediction, we adopted a fate tracing strategy^48 that allows measurement of traced hematopoietic cell populations from labeled endothelial precursors within a specific hemogenic vascular site. By inducing endothelial recombination of Sox17 in AGM explants using the Cdh5(PAC)-CreERT2/RTom/Sox17flox transgenic mouse line, the number of EHT derived hematopoietic cells can be quantified through fate mapping (FIG. 13c, and FIG. 25C). Tamoxifen induction in vitro with the active metabolite 4-hydroxytamoxifen (4-OHT) at E11.0 allows immediate ablation in AGM explants during EHT, and the calculation of a HE ratio which we define as traced hematopoietic cells (HCs) compared to traced endothelial cells (ECs). […] The observed increase in HE ratios and HSPC number is not due to proliferation effects (as measured by BrdU incorporation, FIG. 25D), nor is the higher HE ratio due to changes in cell death (Annexin-V staining, supplementary FIG. 25D). We also observe increases in maturing hematopoietic populations (CD31−CD117+Sca1+Td+), FIG. 25E. In addition, when a similar strategy is applied to earlier explants (E9.5) prior to hematopoietic cell cluster emergence, we observe similar trends in the HE ratio (FIG. 25F). […] To further evaluate the role of Sox17 in this process, we undertook gain-of-function studies in wildtype AGM explants using adenoviral-mediated overexpression of human Sox17 (AdhSox17-GFP), FIG. 13g. GFP expression in explants overlapped with SOX17 co-staining (FIG. 13h), allowing for cell sorting of AGM endothelial cells (CD31+) that were either successfully infected (GFP+) or not infected (GFP−) by AdhSox17-GFP, FIG. 13i. […] We also show the known positive regulation of Notch1 by Sox17, and regulation of other SoxF family members, Sox7 and Sox18.
Whole embryos or AGMs were dissociated as described67 and stained for 30 min at 4° C. with agitation. Single cell suspensions were sorted in a BD FACS Aria III. Flow cytometric analyses were performed on a FACS Verse or FACS Aria III with FACSDiva 8.0 software (BD Biosciences) and data analyzed using FlowJo v10.0.7 (Tree Star). Gating strategy in FIG. 25C, see Table 7 for a list of antibodies.
AGMs from Cdh5(PAC)-CreERT2/R26RTd/Sox17 and Notch1 floxed embryos were dissected and cultured for 24 hrs in 4-hydroxytamoxifen 4-OHT (Sigma H7904) as previously described48, at E11 (and E9.5 for Sox17 mutants). In vivo induction was achieved by intraperitoneal injection of 0.8 mg of tamoxifen of pregnant dams at E9.5. Tamoxifen (MP Biomedical, 156738) prepared as previously described48. DAPT γ-secretase inhibitor (Sigma, D5942) was prepared in DMSO and added directly to explant culture medium at final concentrations of 25 μM, 50 μM, 100 μM, or 200 μM. For overexpression studies, AGMs were incubated with 8×10^7 adenoviral particles per milliliter at 37 C with agitation for 1 hr prior to explant culture48. Adeno-CMV-hSox17-GFP (AdhSox17-GFP) was produced by Vector Biolabs (ADV-224019, Ref Seq: BC140307).

[2] = system: mouse embryos at E12.5; assay: Mitotic arrest by nocodazole injection into mouse embryos; assay type: in vivo; conditions: E12.5, 2 hrs prior to sacrifice
[3] = system: murine HSPCs; assay: Addition of Tgfβ1 to newly formed murine HSPCs; assay type: cell-based; conditions: preliminary mouse studies

C[C@H](NC(=O)Cc1cc(F)cc(F)c1)C(=O)N[C@H](C(=O)OC(C)(C)C)c1ccccc1 [DAPT]
HE ratios after AGM explants were exposed [1]: increased HE ratios
HE ratio in comparison to control ([1]; 50-100 μM DAPT, 24 hours, control DMSO): significant increase
Wildtype HE ratio (DAPT), Mean ([1]; WT + 25 μM, 24 hours): 0.9771
Wildtype HE ratio (DAPT), Mean ([1]; WT + 50 μM, 24 hours): 0.9702
Wildtype HE ratio (DAPT), Mean ([1]; WT + 100 μM, 24 hours): 0.9649
Wildtype HE ratio (DAPT), Mean ([1]; WT + 200 μM, 24 hours): 0.8264

COC(=O)Nc1nc2ccc(C(=O)c3cccs3)cc2[nH]1 [nocodazole]
mitotic arrest in the endothelium [2]: not arrested in mitosis
mitotic arrest in the myocardium [2]: multiple cell division arrests

Tgfβ1: transforming growth factor β1
maturation of HSPCs [3]: may accelerate their maturation
